“Also recorded” adds a separate entry of the source. Residues, ends and D or L forms follow the SMILES beside them. *: point of attachment. Cbz = O=C(OCc1ccccc1)*
Assays:
[1] = test system: T47D cells; experiment: Competition co-culture of shPSMD2-RFP and shControl-GFP T47D cells, FACS and microscopy; type: cell-based, human; conditions: 1:10 plating ratio; concentration-dependent
Description: We created two cell lines—one line that expresses red fluorescent protein (turboRFP) and the doxycycline-inducible PSMD2-targeting shRNA and another line that expresses green fluorescent protein (GFP) and a doxycycline-inducible control shRNA (FIG. 6A). First, we induced shRNA expression with doxycycline for 48 hours. After recovery, we mixed shPSMD2-RFP and shControl-GFP cells at different ratios (either 1:1, 1:2, 1:5 or 1:10), adding the cells with reduced PSMD2 as the minority subpopulation. Twenty-four hours after plating, we treated these mixed populations of cells for 48 hours with increasing concentrations of bortezomib (5, 7.5 or 10 nM). We allowed the cells to recover in the absence of bortezomib and then we quantified the red and green cells by FACS analysis (FIG. 6A) and captured representative images by fluorescence microscopy (FIG. 6B).
The experiment described in Example 10 was repeated with minor differences using a panel of different proteasome inhibitors: MLN2238, MLN9708, and oprozomib T47D cells harboring a doxycycline inducible control shRNA (GFP) or a doxycycline-inducible PSMD2 shRNA (TurboRFP) were incubated with doxycycline for 3 days. Cells were collected, counted, and plated at a 1:10 ratio of TurboRFP-expressing PSMD2 shRNA cells/GFP expression control shRNA cells in the absence of Dox. Proteasome inhibitors were added at the specified concentrations and cells were maintained in culture. Cells were allowed to recover in the absence of the proteasome inhibitor and then analyzed by FACS (FIG. 8B, top) or visualized by microscopy (FIG. 8B, bottom). In the absence of proteasome inhibitors, the initial plating ratio of these cells (1:10) was maintained over the duration of the experiment (FIG. 8B). […] The effect was concentration-dependent in that higher concentrations elicited more substantial shifts.
cells were trypsinized in 100 μL Accumax® solution and further diluted into 100 μl PBSx1. The number of cells with red or green fluorescent proteins was measured by MACSQuant® VYB according to manufactures protocol. Images of RFP and GFP were created by overlaying images using Fiji software.

[2] = test system: T47D cells; experiment: Selleck anti-cancer compound library screen, PSMD2 KD versus control T47D cells (resazurin); type: cell-based, human; conditions: 4 concentrations, 72 hours
Description: After 48 hours the cells were collected, counted, and plated at 1000 cells/well in 384 well plates in duplicates for each cell line. Compounds from the Selleck Chemicals anti-cancer compound library β49 drugs in 4 concentrations; […]) were pinned the next day and viability was measured after 72 hours by the reduction of Resazurin (Ex=530 nm, Em=590 nm).
The effect of each drug on viability of cells was calculated by averaging the duplicate experiments. The data is plotted in FIG. 16 as the log2 of the ratio of viability of PSMD2 KD versus control cells (log2 (shPSMD2/Control)).

[3] = test system: T47D cells; experiment: Cell viability of T47D cells with doxycycline-inducible PSMD2 shRNA; type: cell-based, human; conditions: for resistance of cells harboring the PSMD2 shRNA versus parental line (EC50): doxycycline 3 days, 96 hour culture
Description: T47D cells harboring a doxycycline inducible control shRNA (GFP) or a doxycycline-inducible PSMD2 shRNA (TurboRFP) were incubated with doxycycline for 3 days. Cells were then split and grown in the absence of Dox and proteasome inhibitors were then added at various concentrations. Cells were maintained in culture and then counted.
For the generation of the T47D Tet-inducible PSMD2 knockdown cell line—the TRIPZ vector with an inducible shRNA targeting PSMD2 was purchased from Dharmacon (clone V3THS_403760). It was introduced to the T47D cells according to manufactures protocol and cells were selected with puromycin 1 μg/ml for one week. The cells were exposed to doxycycline for 24 hours and cells were FACS sorted for the top 10% of most RFP expressing cells (highest expression of shRNA). The cells were further cultured in the absence of doxycycline and PSMD2 knockdown was induced as specified in the relevant Examples.
Relative cell growth and survival were measured in 96-well microplate format in the shRNA experiments and in 384 well format in the drug toxicity assays, by using the fluorescent detection of resazurin dye reduction as an endpoint (544 nm excitation and 590 nm emission). 2,500 cells in 96 wells format or 1,000 cells in 384 well format were plated 24 hours before compound exposure (for 72 hours or indicated time). Each analysis was performed at least with three replicas.

[4] = test system: IMR32 and Kelly cells; experiment: CellTiter-Glo viability of IMR32 and Kelly neuroblastoma cells; type: cell-based; conditions: 72 hours
Description: IMR32 and Kelly cells were each cultured in the presence of bortezomib at concentrations ranging from 0.001 um to 0.100 um. […] The fold viability relative to culture in the absence of bortezomib was determined for each cell line.
The fold viability relative to culture in the absence of the compound was determined for each cell line.

[5] = test system: T47D cells; experiment: CellTiter-Glo viability of PSMD2 KD versus control T47D cells with BCL2 family inhibitors; type: cell-based, human
Description: Cell viability was measured by CellTiter-Glo® Luminescent Cell Viability Assay 72 hours after addition of the compounds to cells.

[6] = test system: IMR32 and Kelly cells; experiment: CellTiter-Glo viability of IMR32 and Kelly neuroblastoma cells; type: cell-based; conditions: 72 hours; remark: listed apart in the source
[7] = test system: Saccharomyces cerevisiae; experiment: Yeast DAmP strains MG132 sensitivity assay; type: cell-based; conditions: 50 μM MG132, 48 hours
Excerpt: Additionally, because the essential role of the proteasome in maintaining protein homeostasis is conserved across all eukaryotes (Hilt and Wolf, 1995), we asked whether reducing expression of 19S subunits confers resistance to proteasome inhibitors in an evolutionary distant organism—the yeast Saccharomyces cerevisiae. As the 19S regulatory complex components are essential for viability in yeast, we utilized a library of hypomorphic (DAmP) alleles for essential yeast genes. In this library, the expression of individual mRNA species is reduced from two to ten-fold by replacing the mRNA's 3′ untranslated region (Breslow et al., 2008).
Yeast cells were grown over night in media containing L-proline as nitrogen source instead of ammonium sulfate. […] OD was measured over the period of 48 hours.

## CC(C)C[C@H](NC(=O)CNC(=O)c1cc(Cl)ccc1Cl)B(O)O [MLN2238, ixazomib]
[1]
  shift of surviving cell populations towards PSMD2 shRNA cells: substantially shifted the populations of surviving cells
[2]
  selective effect on viability, PSMD2 KD versus control cells (log2 (shPSMD2/Control)): selectively reduce viability of control cells versus PSMD2 KD cells

## CC(C)C[C@H](NC(=O)[C@H](CCc1ccccc1)NC(=O)CN1CCOCC1)C(=O)N[C@@H](Cc1ccccc1)C(=O)N[C@@H](CC(C)C)C(=O)[C@@]1(C)CO1 [carfilzomib]
[3]
  resistance of cells harboring the PSMD2 shRNA versus parental line (EC50): considerably more resistant

## CN(NC(=O)CC(=O)NN(C)C(=S)c1ccccc1)C(=S)c1ccccc1 [elesclomol]
[2]
  selective effect on viability, PSMD2 KD versus control cells (log2 (shPSMD2/Control)): selectively inhibit growth of T47D cancer cells that have a reduced level of PSMD2; also recorded: selectively reduce the viability of PSMD2 KD cells versus control cells
[4]
  sensitivity of IMR32 cells versus Kelly cells: dramatically more sensitive

## COC[C@H](NC(=O)c1cnc(C)s1)C(=O)N[C@@H](COC)C(=O)N[C@@H](Cc1ccccc1)C(=O)[C@@]1(C)CO1 [oprozomib]
[3]
  resistance of cells harboring the PSMD2 shRNA versus parental line (EC50): considerably more resistant
[1]
  shift of surviving cell populations towards PSMD2 shRNA cells: substantially shifted the populations of surviving cells

## CCN(CC)C(=S)SSC(=S)N(CC)CC [disulfiram, tetraethylthiuram disulfide]
[2]
  selective effect on viability, PSMD2 KD versus control cells (log2 (shPSMD2/Control)): selectively inhibit growth of T47D cancer cells that have a reduced level of PSMD2; also recorded: selectively reduce the viability of PSMD2 KD cells versus control cells
[4]
  sensitivity of IMR32 cells versus Kelly cells: dramatically more sensitive

## CC1(C)CCC(c2ccc(Cl)cc2)=C(CN2CCN(c3ccc(C(=O)NS(=O)(=O)c4ccc(N[C@H](CCN5CCOCC5)CSc5ccccc5)c(S(=O)(=O)C(F)(F)F)c4)cc3)CC2)C1 [ABT-263, navitoclax]
[2]
  selective effect on viability, PSMD2 KD versus control cells (log2 (shPSMD2/Control)): selectively inhibits growth of T47D cancer cells that have a reduced level of PSMD2; also recorded: selectively reduce the viability of PSMD2 KD cells versus control cells
[5]; 72 hours
  sensitivity of PSMD2 KD cells versus control cells: more sensitive
[5]; doxycycline-induced
  sensitization by suppression of 19S subunit PSMD2: not sufficient, however, to induce a profound sensitization
[4]
  sensitivity of IMR32 cells versus Kelly cells: dramatically more sensitive; also recorded: significantly more sensitive
[6]
  preferential sensitivity of IMR32 versus Kelly cells, compared between BCL2 family inhibitors: much greater
[6]; IMR32 cells
  sensitivity after reintroduction of the PSMD5 subunit: did not significantly alter

## ixazomib citrate [MLN9708]
[3]
  resistance of cells harboring the PSMD2 shRNA versus parental line (EC50): considerably more resistant
[1]
  shift of surviving cell populations towards PSMD2 shRNA cells: substantially shifted the populations of surviving cells
[2]
  selective effect on viability, PSMD2 KD versus control cells (log2 (shPSMD2/Control)): selectively reduce viability of control cells versus PSMD2 KD cells

## Nc1nc(Cl)nc2c1ncn2[C@H]1C[C@H](O)[C@@H](CO)O1 [cladribine, 2-chlorodeoxyadenosine]
[2]
  selective effect on viability, PSMD2 KD versus control cells (log2 (shPSMD2/Control)): selectively inhibit growth of T47D cancer cells that have a reduced level of PSMD2; also recorded: selectively reduce the viability of PSMD2 KD cells versus control cells

## COc1ccc(-c2ccc3c(N4CCOCC4)nc(N4C[C@@H](C)O[C@@H](C)C4)nc3n2)cc1CO [Ku-0063794]
[2]
  selective effect on viability, PSMD2 KD versus control cells (log2 (shPSMD2/Control)): selectively inhibit growth of T47D cancer cells that have a reduced level of PSMD2; also recorded: selectively reduce the viability of PSMD2 KD cells versus control cells

## CC(C)C[C@@H](C=O)NC(=O)[C@H](CC(C)C)NC(=O)[C@H](CC(C)C)NC(=O)OCc1ccccc1 [MG132, N-(benzyloxycarbonyl)leucinylleucinylleucinal] (Cbz-Leu-Leu-Leu-aldehyde)
[3]; PSMD2 shRNA versus control
  resistance upon doxycycline-induced reduction of PSMD2: significantly increased resistance
[7]
  resistance of 19S subunit DAmP strains to proteasome inhibition: five of these twelve strains had significantly increased resistance

— US11092602B2, “Methods and compositions relating to proteasome inhibitor resistance” (Whitehead Institute for Biomedical Research, priority 2015, dated 2021)
